The values below come from BindingDB's records for doi:10.1021/bi701378g (Pfizer, 2007).

Holding throughout (conditions): pH 7.4; 30 °C
For assay [1], the target named is T1, Fatty-acid amide hydrolase 1 (Homo sapiens, UniProt O00519).
T1 sequence (O00519 whole entry): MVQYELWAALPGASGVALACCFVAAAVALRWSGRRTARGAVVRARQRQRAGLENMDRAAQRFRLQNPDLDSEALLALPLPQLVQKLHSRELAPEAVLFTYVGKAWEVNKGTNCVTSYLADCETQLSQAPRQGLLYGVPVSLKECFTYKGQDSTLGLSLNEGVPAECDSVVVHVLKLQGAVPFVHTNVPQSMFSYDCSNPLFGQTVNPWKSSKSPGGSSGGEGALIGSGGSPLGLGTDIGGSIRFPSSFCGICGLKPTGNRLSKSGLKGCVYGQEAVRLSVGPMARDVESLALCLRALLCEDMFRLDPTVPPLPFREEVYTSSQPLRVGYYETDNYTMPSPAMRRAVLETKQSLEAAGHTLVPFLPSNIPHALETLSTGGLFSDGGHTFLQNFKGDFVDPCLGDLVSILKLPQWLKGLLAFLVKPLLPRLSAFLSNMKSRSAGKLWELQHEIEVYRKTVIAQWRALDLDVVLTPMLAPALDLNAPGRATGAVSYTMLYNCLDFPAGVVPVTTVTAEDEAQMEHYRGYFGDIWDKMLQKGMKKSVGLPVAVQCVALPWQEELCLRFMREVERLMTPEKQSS
Description: FAAH Inhibition Assay (5 min Preincubation). As to the method: (§1) FAAH activity was measured by following the production of ammonia generated from the hydrolysis of oleamide by FAAH. GDH catalyzes the condensation of ammonia and alpha-ketoglutarate to glutamate with a concomitant conversion of NADH to nicotinamide adenine dinucleotide, oxidized form (NAD+), which is spectrophotometrically measured at 340 nm. Test compounds were preincubated with FAAH at room temperature for 5 min. The reaction was initiated with the addition of substrate oleamide. The absorbance at 340 nm was collected over a period of 30 min with reading taken in 10-s intervals using a spectrophotometer.

The target of assay [2] is T1, Fatty-acid amide hydrolase 1. Description: FAAH Inhibition Assay (15 min Preincubation). As to the method:
as §1, with “15” for “5”

Assay [3] shares this target. Description: FAAH Inhibition Assay (30 min Preincubation). As for the experimental part: as §1, with “30” for “5”
Assay [4] has the same target. Description: FAAH Inhibition Assay (60 min Preincubation). As for the experimental part:
as §1, with “60” for “5”

Usually pIC50 stands for −log10 of the IC50, conventionally taken in molar units.

pIC50: −log10 of the molar value.

`O=C(Nc1ccccc1)N1CCN(Cc2ccc3ccccc3n2)CC1` [N-phenyl-4-(quinolin-2-ylmethyl)piperazine-1-carboxamide]: the pIC50 was 6.00 in assay [1], 6.16 in assay [2], 6.33 in assay [3] and 7.48 in assay [4].
